The source made the active and inactive calls. No cut-off for these calls is given here.
Tests used:
PC-3 [1] = experiment: cells; conditions: Homo sapiens, PC-3, 72 h
Description: Antiproliferative activity against human PC-3 cells assessed as inhibition of cell proliferation incubated for 72 hrs by MTT assay

PC-3 [2] = experiment: Induction of apoptosis in human PC-3 cells assessed as apoptotic rate at 1 uM incubated for 48 hrs by Annexin V-FITC/PI staining based flow cytometric analysis relative to control; assay type: functional
PC-3 [3] = experiment: Cell cycle arrest in human PC-3 cells assessed as accumulation of cells at G1 phase at 1 uM incubated for 48 hrs by PI staining based flow cytometric analysis (reference value: 60.75 %); assay type: functional
PC-3 [4] = experiment: Cell cycle arrest in human PC-3 cells assessed as accumulation of cells at S phase at 1 uM incubated for 48 hrs by PI staining based flow cytometric analysis (reference value: 24.79 %); assay type: functional
PC-3 [5] = experiment: Cell cycle arrest in human PC-3 cells assessed as accumulation of cells at G2 phase at 1 uM incubated for 48 hrs by PI staining based flow cytometric analysis (reference value: 14.45 %); assay type: functional
PC-3 [6] = experiment: Cell cycle arrest in human PC-3 cells assessed as accumulation of cells at G1 phase at 5 uM incubated for 48 hrs by PI staining based flow cytometric analysis (reference value: 60.75 %); assay type: functional
PC-3 [7] = experiment: Cell cycle arrest in human PC-3 cells assessed as accumulation of cells at S phase at 5 uM incubated for 48 hrs by PI staining based flow cytometric analysis (reference value: 24.79 %); assay type: functional
PC-3 [8] = experiment: Cell cycle arrest in human PC-3 cells assessed as accumulation of cells at G2 phase at 5 uM incubated for 48 hrs by PI staining based flow cytometric analysis (reference value: 14.45 %); assay type: functional
PC-3 [9] = experiment: Cell cycle arrest in human PC-3 cells assessed as accumulation of cells at G1 phase at 10 uM incubated for 48 hrs by PI staining based flow cytometric analysis (reference value: 60.75 %); assay type: functional
PC-3 [10] = experiment: Cell cycle arrest in human PC-3 cells assessed as accumulation of cells at S phase at 10 uM incubated for 48 hrs by PI staining based flow cytometric analysis (reference value: 24.79 %); assay type: functional
PC-3 [11] = experiment: Cell cycle arrest in human PC-3 cells assessed as accumulation of cells at G2 phase at 10 uM incubated for 48 hrs by PI staining based flow cytometric analysis (reference value: 14.45 %); assay type: functional
PC-3 [12] = experiment: Induction of apoptosis in human PC-3 cells assessed as apoptotic rate at 5 to 10 uM incubated for 48 hrs by Annexin V-FITC/PI staining based flow cytometric analysis relative to control; assay type: functional; conditions: dose 5-10 µM
PC-3 [13] = experiment: Inhibition of AKT signaling pathway in human PC-3 cells assessed as reduction in phosphorylated GSK3beta level at 1 to 10 uM incubated for 24 hrs by Western blot analysis; assay type: cell-based; conditions: dose 1-10 µM
PC-3 [14] = experiment: Upregulation of phosphorylated AKT expression level in human PC-3 cells at 1 to 10 uM incubated for 24 hrs by Western blot analysis; assay type: functional, cell-based; conditions: dose 1-10 µM
[15] = target: RAC-beta serine/threonine-protein kinase (Homo sapiens) (UniProt P31751); experiment: Inhibition of AKT2 (unknown origin) using biotin-tagged STK as substrate at 10 nM incubated for 40 mins in presence of ATP by fluorescence based microplate reader analysis relative to control
[16] = target: RAC-gamma serine/threonine-protein kinase (Homo sapiens) (UniProt Q9Y243); experiment: Inhibition of AKT3 (unknown origin) using biotin-tagged STK as substrate at 10 nM incubated for 40 mins in presence of ATP by fluorescence based microplate reader analysis relative to control
[17] = target: Ribosomal protein S6 kinase alpha-1 (Homo sapiens) (UniProt Q15418); experiment: Inhibition of RSK1 (unknown origin) at 1 uM relative to control
Homo sapiens [18] = organism: Homo sapiens; experiment: Inhibition of PKA (unknown origin) at 1 uM relative to control
[19] = target: Ribosomal protein S6 kinase beta-1 (Homo sapiens) (UniProt P23443); experiment: Inhibition of p70S6K (unknown origin) at 1 uM relative to control
[20] = target: Rho-associated protein kinase 1 (Homo sapiens) (UniProt Q13464); experiment: Inhibition of ROCK1 (unknown origin) at 1 uM relative to control
Homo sapiens [21] = organism: Homo sapiens; experiment: Inhibition of ABL (unknown origin) at 1 uM relative to control
[22] = target: Cyclin-dependent kinase 1 (Homo sapiens) (UniProt P06493); experiment: Inhibition of CDK1 (unknown origin) at 1 uM relative to control
[23] = target: Glycogen synthase kinase-3 beta (Homo sapiens) (UniProt P49841); experiment: Inhibition of GSK3beta (unknown origin) at 1 uM relative to control
[24] = target: Tyrosine-protein kinase JAK1 (Homo sapiens) (UniProt P23458); experiment: Inhibition of JAK1 (unknown origin) at 1 uM relative to control
[25] = target: MAP kinase-interacting serine/threonine-protein kinase 1 (Homo sapiens) (UniProt Q9BUB5); experiment: Inhibition of MNK1 (unknown origin) at 1 uM relative to control
[26] = target: Serine/threonine-protein kinase B-raf (Homo sapiens) (UniProt P15056); experiment: Inhibition of B-raf (unknown origin) at 1 uM relative to control
[27] = target: RAF proto-oncogene serine/threonine-protein kinase (Homo sapiens) (UniProt P04049); experiment: Inhibition of RAF-1 (unknown origin) at 1 uM relative to control
[28] = Clearance in male ICR mouse at 1 mg/kg, iv measured after 24 hrs by LC-MS/MS analysis; assay type: ADME, organism-based; conditions: in vivo
[29] = Half-life in male ICR mouse at 1 mg/kg, iv measured after 24 hrs by LC-MS/MS analysis; assay type: ADME, organism-based; conditions: in vivo
[30] = AUC (0 to t) in male ICR mouse at 1 mg/kg, iv measured after 24 hrs by LC-MS/MS analysis; assay type: ADME, organism-based; conditions: in vivo
[31] = AUC (0 to infinity) in male ICR mouse at 1 mg/kg, iv measured after 24 hrs by LC-MS/MS analysis; assay type: ADME, organism-based; conditions: in vivo
[32] = Volume of distribution in male ICR mouse at 1 mg/kg, iv measured after 24 hrs by LC-MS/MS analysis; assay type: ADME, organism-based; conditions: in vivo
[33] = MRT (0 to infinity) in male ICR mouse at 1 mg/kg, iv measured after 24 hrs by LC-MS/MS analysis; assay type: ADME, organism-based; conditions: in vivo
[34] = Half-life in male ICR mouse at 10 mg/kg, po measured after 24 hrs by LC-MS/MS analysis; assay type: ADME, organism-based; conditions: in vivo
[35] = AUC (0 to t) in male ICR mouse at 10 mg/kg, po measured after 24 hrs by LC-MS/MS analysis; assay type: ADME, organism-based; conditions: in vivo
[36] = AUC (0 to infinity) in male ICR mouse at 10 mg/kg, po measured after 24 hrs by LC-MS/MS analysis; assay type: ADME, organism-based; conditions: in vivo
[37] = MRT (0 to infinity) in male ICR mouse at 10 mg/kg, po measured after 24 hrs by LC-MS/MS analysis; assay type: ADME, organism-based; conditions: in vivo
[38] = Tmax in male ICR mouse at 10 mg/kg, po measured after 24 hrs by LC-MS/MS analysis; assay type: ADME, organism-based; conditions: in vivo
[39] = Cmax in male ICR mouse at 10 mg/kg, po measured after 24 hrs by LC-MS/MS analysis; assay type: ADME, organism-based; conditions: in vivo
[40] = Oral bioavailability in male ICR mouse at 10 mg/kg measured after 24 hrs by LC-MS/MS analysis; assay type: ADME, organism-based; conditions: in vivo

Glycogen synthase kinase-3 beta (Homo sapiens), sequence (P49841 whole entry, looked up): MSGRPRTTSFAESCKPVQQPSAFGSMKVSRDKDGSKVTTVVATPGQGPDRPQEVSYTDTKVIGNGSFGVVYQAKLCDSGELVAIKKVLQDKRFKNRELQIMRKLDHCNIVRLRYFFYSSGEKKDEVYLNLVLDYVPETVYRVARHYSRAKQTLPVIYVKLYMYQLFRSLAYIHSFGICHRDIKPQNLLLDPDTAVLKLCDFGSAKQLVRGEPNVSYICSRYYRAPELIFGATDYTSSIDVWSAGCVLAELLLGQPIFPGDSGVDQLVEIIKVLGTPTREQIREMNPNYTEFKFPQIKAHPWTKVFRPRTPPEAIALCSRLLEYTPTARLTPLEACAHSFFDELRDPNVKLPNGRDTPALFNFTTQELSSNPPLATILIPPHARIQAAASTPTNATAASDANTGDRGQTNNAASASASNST
MAP kinase-interacting serine/threonine-protein kinase 1 (Homo sapiens), sequence (Q9BUB5 whole entry, looked up): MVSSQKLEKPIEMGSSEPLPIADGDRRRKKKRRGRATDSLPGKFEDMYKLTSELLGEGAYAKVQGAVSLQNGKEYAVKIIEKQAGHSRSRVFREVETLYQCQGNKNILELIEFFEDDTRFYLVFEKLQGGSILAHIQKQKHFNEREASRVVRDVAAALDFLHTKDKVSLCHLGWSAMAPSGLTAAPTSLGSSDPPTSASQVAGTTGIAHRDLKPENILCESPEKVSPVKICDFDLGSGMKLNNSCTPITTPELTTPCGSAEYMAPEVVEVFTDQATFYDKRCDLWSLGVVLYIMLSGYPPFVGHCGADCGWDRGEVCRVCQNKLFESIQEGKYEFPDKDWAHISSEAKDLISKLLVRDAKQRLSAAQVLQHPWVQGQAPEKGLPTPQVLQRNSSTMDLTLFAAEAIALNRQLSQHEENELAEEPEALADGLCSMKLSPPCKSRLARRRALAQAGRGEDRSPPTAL
Serine/threonine-protein kinase B-raf (Homo sapiens), sequence (P15056 whole entry): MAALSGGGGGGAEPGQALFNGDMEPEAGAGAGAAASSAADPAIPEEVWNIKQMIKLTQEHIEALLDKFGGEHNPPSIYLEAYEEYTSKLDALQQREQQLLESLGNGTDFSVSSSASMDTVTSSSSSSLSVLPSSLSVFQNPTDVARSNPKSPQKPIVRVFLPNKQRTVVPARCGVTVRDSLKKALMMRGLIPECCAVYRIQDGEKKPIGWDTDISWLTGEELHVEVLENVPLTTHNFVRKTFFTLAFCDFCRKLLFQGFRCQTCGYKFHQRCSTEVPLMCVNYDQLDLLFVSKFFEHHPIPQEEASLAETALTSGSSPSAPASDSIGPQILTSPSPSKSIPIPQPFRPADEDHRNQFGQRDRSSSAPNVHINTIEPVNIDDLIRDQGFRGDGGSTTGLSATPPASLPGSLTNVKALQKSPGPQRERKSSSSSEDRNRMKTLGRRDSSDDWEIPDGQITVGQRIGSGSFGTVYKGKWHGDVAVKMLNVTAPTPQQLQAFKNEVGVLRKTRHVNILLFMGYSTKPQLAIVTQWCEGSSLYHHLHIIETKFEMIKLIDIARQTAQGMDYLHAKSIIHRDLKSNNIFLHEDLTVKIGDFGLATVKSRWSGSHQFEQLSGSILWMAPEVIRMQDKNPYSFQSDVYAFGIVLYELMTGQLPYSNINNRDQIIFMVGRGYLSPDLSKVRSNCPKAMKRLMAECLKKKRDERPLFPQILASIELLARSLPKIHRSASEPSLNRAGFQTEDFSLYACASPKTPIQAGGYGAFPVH
RAC-gamma serine/threonine-protein kinase (Homo sapiens), sequence (Q9Y243 whole entry): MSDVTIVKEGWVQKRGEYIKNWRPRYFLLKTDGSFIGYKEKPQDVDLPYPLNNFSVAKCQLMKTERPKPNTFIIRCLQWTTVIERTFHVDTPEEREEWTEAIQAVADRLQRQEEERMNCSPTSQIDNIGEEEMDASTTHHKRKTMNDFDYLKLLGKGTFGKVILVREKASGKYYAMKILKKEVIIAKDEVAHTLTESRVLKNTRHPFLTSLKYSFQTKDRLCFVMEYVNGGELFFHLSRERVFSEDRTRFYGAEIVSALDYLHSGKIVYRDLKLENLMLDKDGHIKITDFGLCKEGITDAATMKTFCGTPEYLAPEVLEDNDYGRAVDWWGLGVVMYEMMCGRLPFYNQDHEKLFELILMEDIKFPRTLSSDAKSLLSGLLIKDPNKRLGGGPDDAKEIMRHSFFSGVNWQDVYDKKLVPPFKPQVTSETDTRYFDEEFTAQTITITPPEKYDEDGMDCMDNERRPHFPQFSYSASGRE
Rho-associated protein kinase 1 (Homo sapiens), sequence (Q13464 2-1354 limits assumed): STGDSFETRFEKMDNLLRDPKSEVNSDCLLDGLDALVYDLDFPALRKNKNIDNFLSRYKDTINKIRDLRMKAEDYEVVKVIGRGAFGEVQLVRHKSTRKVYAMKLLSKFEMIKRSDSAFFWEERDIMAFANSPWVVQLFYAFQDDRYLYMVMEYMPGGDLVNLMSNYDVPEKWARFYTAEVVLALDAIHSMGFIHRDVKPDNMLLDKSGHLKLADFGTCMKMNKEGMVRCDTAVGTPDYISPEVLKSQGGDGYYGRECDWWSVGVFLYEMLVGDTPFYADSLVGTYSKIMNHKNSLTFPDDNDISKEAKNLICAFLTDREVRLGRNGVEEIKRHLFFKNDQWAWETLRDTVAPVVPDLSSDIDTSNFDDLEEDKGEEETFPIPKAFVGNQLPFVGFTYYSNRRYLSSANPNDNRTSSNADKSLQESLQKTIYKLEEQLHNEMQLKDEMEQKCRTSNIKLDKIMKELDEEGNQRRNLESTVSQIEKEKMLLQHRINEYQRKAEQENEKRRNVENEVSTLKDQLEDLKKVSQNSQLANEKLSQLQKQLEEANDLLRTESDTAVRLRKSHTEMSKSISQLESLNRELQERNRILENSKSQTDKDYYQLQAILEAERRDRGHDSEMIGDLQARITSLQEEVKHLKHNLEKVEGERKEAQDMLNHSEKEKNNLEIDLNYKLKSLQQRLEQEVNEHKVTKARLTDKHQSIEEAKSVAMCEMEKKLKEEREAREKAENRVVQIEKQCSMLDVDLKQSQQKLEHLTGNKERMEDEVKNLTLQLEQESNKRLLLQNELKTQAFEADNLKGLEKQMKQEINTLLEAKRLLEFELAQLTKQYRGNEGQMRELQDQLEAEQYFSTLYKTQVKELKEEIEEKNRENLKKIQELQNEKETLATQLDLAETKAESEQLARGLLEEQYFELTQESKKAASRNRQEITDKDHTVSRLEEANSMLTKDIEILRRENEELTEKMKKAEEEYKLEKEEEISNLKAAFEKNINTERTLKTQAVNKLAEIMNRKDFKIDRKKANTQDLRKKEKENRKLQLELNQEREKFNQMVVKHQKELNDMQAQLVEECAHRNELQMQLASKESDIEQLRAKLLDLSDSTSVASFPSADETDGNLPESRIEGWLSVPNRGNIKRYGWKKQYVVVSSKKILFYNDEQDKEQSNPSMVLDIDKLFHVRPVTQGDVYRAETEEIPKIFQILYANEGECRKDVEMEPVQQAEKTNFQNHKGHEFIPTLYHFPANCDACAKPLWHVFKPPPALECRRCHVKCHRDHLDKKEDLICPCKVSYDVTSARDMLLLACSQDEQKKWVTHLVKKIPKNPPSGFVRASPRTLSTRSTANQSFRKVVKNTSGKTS
Cyclin-dependent kinase 1 (Homo sapiens), sequence (P06493 whole entry, looked up): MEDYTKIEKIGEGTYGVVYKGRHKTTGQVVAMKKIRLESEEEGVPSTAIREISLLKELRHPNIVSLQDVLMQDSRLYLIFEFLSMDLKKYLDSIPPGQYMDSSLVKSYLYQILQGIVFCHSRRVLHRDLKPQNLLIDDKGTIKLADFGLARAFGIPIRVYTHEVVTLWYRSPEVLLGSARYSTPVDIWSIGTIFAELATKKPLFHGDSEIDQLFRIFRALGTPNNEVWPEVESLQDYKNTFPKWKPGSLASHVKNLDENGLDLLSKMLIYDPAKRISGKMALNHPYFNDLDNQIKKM
RAF proto-oncogene serine/threonine-protein kinase (Homo sapiens), sequence (P04049 whole entry): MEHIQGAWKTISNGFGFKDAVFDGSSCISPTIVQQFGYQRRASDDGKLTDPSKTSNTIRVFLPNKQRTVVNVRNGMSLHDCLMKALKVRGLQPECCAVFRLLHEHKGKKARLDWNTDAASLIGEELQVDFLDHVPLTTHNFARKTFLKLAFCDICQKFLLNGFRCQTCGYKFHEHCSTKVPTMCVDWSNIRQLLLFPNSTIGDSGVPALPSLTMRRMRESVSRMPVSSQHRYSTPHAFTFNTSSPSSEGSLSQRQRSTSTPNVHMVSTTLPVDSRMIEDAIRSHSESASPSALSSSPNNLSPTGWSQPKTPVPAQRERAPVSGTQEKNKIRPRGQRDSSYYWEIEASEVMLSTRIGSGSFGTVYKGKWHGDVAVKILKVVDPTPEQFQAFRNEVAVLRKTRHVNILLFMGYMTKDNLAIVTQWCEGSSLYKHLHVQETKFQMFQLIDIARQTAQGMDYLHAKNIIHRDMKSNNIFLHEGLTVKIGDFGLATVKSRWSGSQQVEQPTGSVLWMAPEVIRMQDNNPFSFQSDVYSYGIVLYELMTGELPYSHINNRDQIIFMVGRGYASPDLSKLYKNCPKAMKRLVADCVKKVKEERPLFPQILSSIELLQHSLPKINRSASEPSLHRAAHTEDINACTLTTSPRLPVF
Ribosomal protein S6 kinase beta-1 (Homo sapiens), sequence (P23443 whole entry, looked up): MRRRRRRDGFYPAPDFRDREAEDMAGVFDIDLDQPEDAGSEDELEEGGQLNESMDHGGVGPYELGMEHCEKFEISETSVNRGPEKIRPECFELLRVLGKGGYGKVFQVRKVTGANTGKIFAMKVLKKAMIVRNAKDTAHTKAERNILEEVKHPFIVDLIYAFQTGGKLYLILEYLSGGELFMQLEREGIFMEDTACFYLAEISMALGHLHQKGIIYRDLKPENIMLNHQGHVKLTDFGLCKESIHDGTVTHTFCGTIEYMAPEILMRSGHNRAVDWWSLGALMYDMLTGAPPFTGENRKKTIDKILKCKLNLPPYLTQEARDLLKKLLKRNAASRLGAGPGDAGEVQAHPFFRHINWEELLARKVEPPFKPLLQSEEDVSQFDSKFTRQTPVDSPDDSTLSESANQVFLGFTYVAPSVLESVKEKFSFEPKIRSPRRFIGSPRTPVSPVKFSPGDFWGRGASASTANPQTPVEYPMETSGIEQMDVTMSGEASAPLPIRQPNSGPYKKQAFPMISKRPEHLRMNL

## CC(C)NCC(C(=O)N1CCN(c2ncnc3[nH]ncc23)CC1)c1ccc(Cl)cc1Cl (stereo not given)
PC-3 [1]
  IC50: > 40 µM

## CNc1nc(N2CCN(C(=O)C(CNC(C)C)c3ccc(Br)cc3)CC2)c2cc[nH]c2n1 (stereo not given)
PC-3 [1]
  IC50: 8.7 µM

## CC(C)NCC(C(=O)N1CCN(c2ncnc3[nH]cnc23)CC1)c1ccc(Br)cc1 (stereo not given)
PC-3 [1]
  IC50: 20.1 µM

## CNc1nc(N2CCN(C(=O)C(CNC(C)C)c3ccc(Cl)cc3Cl)CC2)c2cc[nH]c2n1 (stereo not given)
PC-3 [1]
  IC50: 18.1 µM

## CC(C)NCC(C(=O)N1CCN(c2ncnc3[nH]nc(Br)c23)CC1)c1ccc(Cl)cc1Cl (stereo not given)
PC-3 [1]
  IC50: 7.8 µM

## CNc1nccc(N2CCN(C(=O)C(CNC(C)C)c3ccc(Cl)cc3Cl)CC2)n1 (stereo not given)
PC-3 [1]
  IC50: 27.8 µM

## CC(C)NCC(C(=O)N1CCN(c2ncnc3[nH]ncc23)CC1)c1ccc(Br)cc1 (stereo not given)
PC-3 [1]
  IC50: 12.4 µM

## CC(C)NCC(C(=O)N1CCN(c2ncnc3[nH]cnc23)CC1)c1ccc(Cl)cc1Cl (stereo not given)
PC-3 [1]
  IC50: 23.8 µM

## CCn1c(-c2nonc2N)nc2c(C#CC(C)(C)O)ncc(OC[C@H]3CCCNC3)c21 [GSK-690693]
PC-3 [2]
  Activity: 10.52%
PC-3 [3]
  Activity: 48.89%
PC-3 [4]
  Activity: 45.34%
PC-3 [5]
  Activity: 5.77%
PC-3 [6]
  Activity: 48.64%
PC-3 [7]
  Activity: 46.38%
PC-3 [8]
  Activity: 4.98%
PC-3 [9]
  Activity: 48.79%
PC-3 [10]
  Activity: 47.26%
PC-3 [11]
  Activity: 3.96%

## CC(C)NCC(C(=O)N1CCN(c2ncnc3ccccc23)CC1)c1ccc(Cl)cc1Cl (stereo not given)
PC-3 [1]
  IC50: > 40 µM

## CC(C)NCC(C(=O)N1CCN(c2ncnc3[nH]nc(Cl)c23)CC1)c1ccc(Cl)cc1Cl (stereo not given)
PC-3 [1]
  IC50: 3.5 µM

## CNc1nc(N2CCN(C(=O)C(CNC(C)C)c3ccc(Cl)cc3Cl)CC2)c2sccc2n1 (stereo not given)
PC-3 [1]
  IC50: 5.9 µM

## CNc1nccc(N2CCN(C(=O)C(CNC(C)C)c3ccc(Br)cc3)CC2)n1 (stereo not given)
PC-3 [1]
  IC50: > 40 µM

## Cc1c[nH]c2ncnc(N3CCN(C(=O)C(CNC(C)C)c4ccc(Br)cc4)CC3)c12 (stereo not given)
PC-3 [1]
  IC50: 15.8 µM

## CC(C)NCC(C(=O)N1CCN(c2ncnc3[nH]nc(Cl)c23)CC1)c1ccc(Br)cc1 (stereo not given)
PC-3 [2]
  Activity: 15.13%
PC-3 [12]
  Activity: >20%
PC-3 [3]
  Activity: 52.46%
PC-3 [4]
  Activity: 32.69%
PC-3 [5]
  Activity: 14.35%
PC-3 [6]
  Activity: 53.89%
PC-3 [7]
  Activity: 36.86%
PC-3 [8]
  Activity: 9.25%
PC-3 [9]
  Activity: 46.45%
PC-3 [10]
  Activity: 47.17%
PC-3 [11]
  Activity: 6.37%
PC-3 [13]
  inhibition: Active
PC-3 [14]
  Activity: Active; Negative Feedback Regulation Within Akt Signaling Pathway Observed
PC-3 [1]
  IC50: 2.9 µM

## CC(C)NCC(C(=O)N1CCN(c2ncnc3ccccc23)CC1)c1ccc(Br)cc1 (stereo not given)
PC-3 [1]
  IC50: 30.2 µM

## Cc1c[nH]c2ncnc(N3CCN(C(=O)C(CNC(C)C)c4ccc(Cl)cc4Cl)CC3)c12 (stereo not given)
PC-3 [1]
  IC50: 22 µM

## CNc1nc(N2CCN(C(=O)C(CNC(C)C)c3ccc(Br)cc3)CC2)c2sccc2n1 (stereo not given)
PC-3 [1]
  IC50: 4.9 µM

## CC(C)NCC(C(=O)N1CCN(c2ncnc3[nH]nc(Br)c23)CC1)c1ccc(Br)cc1 (stereo not given)
PC-3 [2]
  Activity: 12.28%
PC-3 [12]
  Activity: >20%
PC-3 [3]
  Activity: 49.42%
PC-3 [4]
  Activity: 38.35%
PC-3 [5]
  Activity: 12.24%
PC-3 [6]
  Activity: 53.21%
PC-3 [7]
  Activity: 36.75%
PC-3 [8]
  Activity: 10.04%
PC-3 [9]
  Activity: 52.45%
PC-3 [10]
  Activity: 38.31%
PC-3 [11]
  Activity: 9.23%
PC-3 [13]
  inhibition: Active
PC-3 [14]
  Activity: Active; Negative Feedback Regulation Within Akt Signaling Pathway Observed
[15]
  inhibition: 64%
[16]
  inhibition: 89%
[17]
  inhibition: 99%
Homo sapiens [18]
  inhibition: 98%
[19]
  inhibition: 101%
[20]
  inhibition: 91%
Homo sapiens [21]
  inhibition: < 60%
[22]
  inhibition: < 60%
[23]
  inhibition: < 60%
[24]
  inhibition: < 60%
[25]
  inhibition: < 60%
[26]
  inhibition: < 60%
[27]
  inhibition: < 60%
[28]
  clearance: 78.6 mL/min/kg
[29]
  half-life: 1.85 h
[30]
  AUC(0-t) at 24 h: 202 ng·h/mL
[31]
  AUC(0-inf): 214 ng·h/mL
[32]
  Vd: 12.3 L/kg
[33]
  MRT inf: 1.68 h
[34]
  half-life: 1.59 h
[35]
  AUC(0-t) at 24 h: 830 ng·h/mL
[36]
  AUC(0-inf): 876 ng·h/mL
[37]
  MRT inf: 2.43 h
[38]
  Tmax: 0.5 h
[39]
  Cmax: 306 ng/mL
[40]
  bioavailability: 41%
PC-3 [1]
  IC50: 3 µM
